Results: patent publication US20240148821A1, “PHARMACEUTICAL USE OF CYCLIC PEPTIDE COMPOUND” (CHUGAI SEIYAKU KABUSHIKI KAISHA, priority 2021, published 2024)
pIC50: −log10 of the molar value. Numbered stars: 1 amine (or outer) side, 2 acyl side, 3 side chain; on linkers, the order of the positions; unused ones are H or OH. Bridge positions count the residues as written; N and C are the ends. Square brackets hold non-standard residues; d marks the D form. Peptide text beside a SMILES is read from it. * marks the point of attachment. hPhe(3-Cl-4-CF3) = N[C@@H](CCc1ccc(C(F)(F)F)c(Cl)c1)C(=O)O; NEtPhe(4-CF3) = CCN[C@@H](Cc1ccc(C(F)(F)F)cc1)C(=O)O; NMePhe(4-CF3) = CN[C@@H](Cc1ccc(C(F)(F)F)cc1)C(=O)O; hPhe(4-CF3) = N[C@@H](CCc1ccc(C(F)(F)F)cc1)C(=O)O; ACHC(1R,2R) = O=C([C@@H]1CCCC[C@H]1N[*:1])[*:2]; X103 = O=C([C@H](CCc1c(F)cccc1Cl)N[*:1])[*:2]; 3Oxa8azabicyclo(3.2.1)octane = C1CC2COCC1N2*; NMePhe(4-Cl) = CN[C@@H](Cc1ccc(Cl)cc1)C(=O)O; NMedβ3hAla = C[C@H](CC(=O)[*:2])N(C)[*:1]; NMeAla(cPent) = CN[C@@H](CC1CCCC1)C(=O)O; NMeGly(cPent) = CN[C@H](C(=O)O)C1CCCC1; Pro(4,4-F2) = O=C(O)[C@@H]1CC(F)(F)CN1; NMeCha = CN[C@@H](CC1CCCCC1)C(=O)O; Hyp = O=C(O)[C@@H]1C[C@@H](O)CN1; NEtLeu = CCN[C@@H](CC(C)C)C(=O)O; NMeF = CN[C@@H](Cc1ccccc1)C(=O)O; NMeI = CC[C@H](C)[C@H](NC)C(=O)O; d(β3hL) = CC(C)C[C@@H](N)CC(=O)O; NMeD = CN[C@@H](CC(=O)O)C(=O)O; NMeL = CN[C@@H](CC(C)C)C(=O)O; NMeV = CN[C@H](C(=O)O)C(C)C; d(β3hA) = C[C@@H](N)CC(=O)O; Azetidin(1-yl) = C1CN(*)C1; NMeAbu = CC[C@H](NC)C(=O)O; NMeS = CN[C@@H](CO)C(=O)O; Morpholide = C1CN(*)CCO1; NMeA = CN[C@@H](C)C(=O)O; Piperidide = C1CCN(*)CC1; Ac5c = NC1(C(=O)O)CCCC1; Aze = O=C(O)[C@@H]1CCN1; Ac4c = NC1(C(=O)O)CCC1; NEtG = CCNCC(=O)O; Sar = CNCC(=O)O; Propyl = CCC*

The compounds below were run against protein-protein interaction between Kras and SOS1 (biotin-tagged human Kras loaded with GDP, His-tagged human SOS1) (Homo sapiens (Human), UniProt P01116, G12D) (assay: Protein-protein interaction inhibition between Kras and SOS1 (KrasG12D-SOS PPI) using AlphaScreen). Details: AlphaScreen; biotin-tagged human Kras loaded with GDP, His-tagged human SOS1; read-out: KRAS G12D-SOS PPI IC50.
Format: biochemical
In the case of `CCCOC[C@H]1C(=O)N(C)CC(=O)N[C@@H](CCc2ccc(C(F)(F)F)c(Cl)c2)C(=O)N2CCC[C@H]2C(=O)NC2(CCCC2)C(=O)N(C)[C@@H](C2CCCC2)C(=O)N(C)[C@H](C(=O)N2C3CCC2COC3)CC(=O)N(CC)[C@@H](CC(C)C)C(=O)N[C@@H]([C@@H](C)CC)C(=O)N[C@@H](C)C(=O)N2CC[C@H]2C(=O)N1C` [Compound 1167] ([NEtLeu]IA[Aze][NMeS](Propyl)[Sar][hPhe(3-Cl-4-CF3)]P[Ac5c][NMeGly(cPent)][NMeD]-{3Oxa8azabicyclo(3.2.1)octane}; lactam N-11), the pIC50 was 8.06. Work on `CCO[C@@H]1C[C@H]2C(=O)NC3(CCCC3)C(=O)N(C)[C@@H]([C@@H](C)CC)C(=O)N(C)[C@H](C)CC(=O)N(C)[C@@H](CC(C)C)C(=O)N[C@@H]([C@@H](C)CC)C(=O)N(C)[C@@H](C)C(=O)N3CC[C@H]3C(=O)N(CC)[C@@H](Cc3ccc(C(F)(F)F)cc3)C(=O)N(C)CC(=O)N[C@@H](CCc3ccc(C(F)(F)F)c(Cl)c3)C(=O)N2C1` [Compound 932] (cyclo([Ac5c][NMeI][NMedβ3hAla][NMeL]I[NMeA][Aze][NEtPhe(4-CF3)][Sar][hPhe(3-Cl-4-CF3)][Hyp](Et))) yielded a pIC50 of 8.27. Compound `CC[C@H](C)[C@@H]1NC(=O)[C@H](CC(C)C)N(C)C(=O)C[C@@H](C)N(C)C(=O)[C@H]([C@@H](C)CC)N(C)C(=O)C2(CCC2)NC(=O)[C@@H]2CC(F)(F)CN2C(=O)[C@H](CCc2ccc(C(F)(F)F)c(Cl)c2)NC(=O)CN(C)C(=O)[C@H](Cc2ccc(C(F)(F)F)cc2)N(C)C(=O)[C@@H]2CCN2C(=O)[C@H](C)N(C)C1=O` [Compound 462] (cyclo([Ac4c][NMeI][NMedβ3hAla][NMeL]I[NMeA][Aze][NMePhe(4-CF3)][Sar][hPhe(3-Cl-4-CF3)][Pro(4,4-F2)])) has a pIC50 of 7.92. `CC[C@H](C)[C@@H]1NC(=O)[C@H](CC2CCCC2)N(C)C(=O)C[C@@H](C(=O)N2CCOCC2)N(C)C(=O)[C@H](C2CCCC2)N(C)C(=O)C2(CCCC2)NC(=O)[C@@H]2CCCN2C(=O)[C@H](CCc2ccc(C(F)(F)F)c(Cl)c2)NC(=O)CN(C)C(=O)[C@H](C2CCCC2)N(C)C(=O)[C@@H]2CCN2C(=O)[C@H](C)NC1=O` [Compound 1145] ([NMeAla(cPent)]IA[Aze][NMeGly(cPent)][Sar][hPhe(3-Cl-4-CF3)]P[Ac5c][NMeGly(cPent)][NMeD]-Morpholide; lactam N-11) was tested, and the pIC50 was 8.96. `CC[C@H](C)[C@@H]1NC(=O)[C@H](C)N(C)C(=O)C[C@@H](CC(C)C)NC(=O)[C@H](C(C)C)N(C)C(=O)[C@H](Cc2ccccc2)N(C)C(=O)[C@H](CC(C)C)N(C)C(=O)[C@H](CCc2ccc(C(F)(F)F)cc2)NC(=O)CN(C)C(=O)[C@H](Cc2ccc(Cl)cc2)N(C)C(=O)CN(C)C(=O)CN(C)C1=O` [Compound 972] (cyclo(I[Sar][Sar][NMePhe(4-Cl)][Sar][hPhe(4-CF3)][NMeL][NMeF][NMeV][d(β3hL)][NMeA])) showed a pIC50 of 6.48. `CC[C@H](C)[C@@H]1NC(=O)[C@H](C(C)C)NC(=O)[C@@H]2CCCC[C@H]2NC(=O)[C@H](CC(C)C)N(C)C(=O)C2(CCCC2)NC(=O)[C@H](CC(C)C)N(C)C(=O)[C@H](CCc2ccc(C(F)(F)F)cc2)NC(=O)CN(C)C(=O)[C@H](Cc2ccc(Cl)cc2)N(C)C(=O)CN(C)C(=O)CN(C)C1=O` [Compound 1126] (cyclo([Ac5c][NMeL][ACHC(1R,2R)]VI[Sar][Sar][NMePhe(4-Cl)][Sar][hPhe(4-CF3)][NMeL])) showed a pIC50 of 6.60. In the case of `CC[C@H](C)[C@@H]1NC(=O)[C@H](C)N(C)C(=O)C[C@@H](C)NC(=O)[C@H](CC(C)C)N(C)C(=O)[C@H](Cc2ccccc2)N(C)C(=O)[C@H](CC(C)C)NC(=O)[C@H](CCc2c(F)cccc2Cl)NC(=O)CN(C)C(=O)[C@H](Cc2ccc(Cl)cc2)N(C)C(=O)CN(C)C(=O)CN(C)C1=O` [Compound 2092] (cyclo(I[Sar][Sar][NMePhe(4-Cl)][Sar][X103]L[NMeF][NMeL][d(β3hA)][NMeA])), the pIC50 was 6.46. `CC[C@H](C)[C@@H]1NC(=O)[C@H](CC(C)C)N(C)C(=O)C[C@@H](C(=O)N2CCCCC2)N(C)C(=O)[C@H](C(C)C)N(C)C(=O)C2(CCCC2)NC(=O)[C@@H]2CCCN2C(=O)[C@H](CCc2ccc(C(F)(F)F)c(Cl)c2)NC(=O)CN(C)C(=O)[C@H](CC2CCCCC2)N(C)C(=O)[C@@H]2CCN2C(=O)[C@H](CC)N(C)C1=O` [Compound 1569] ([NMeL]I[NMeAbu][Aze][NMeCha][Sar][hPhe(3-Cl-4-CF3)]P[Ac5c][NMeV][NMeD]-Piperidide; lactam N-11) gave a pIC50 of 7.80. Work on `CC[C@H](C)[C@@H]1NC(=O)[C@H](CC(C)C)N(C)C(=O)C[C@@H](C(=O)N2CCC2)N(C)C(=O)[C@H](C2CCCC2)N(C)C(=O)C2(CCCC2)NC(=O)[C@@H]2CCCN2C(=O)[C@H](CCc2ccc(C(F)(F)F)c(Cl)c2)NC(=O)CN(CC)C(=O)[C@H](CC2CCCCC2)N(C)C(=O)[C@@H]2CCN2C(=O)[C@H](C)N(C)C1=O` [Compound 726] ([NMeL]I[NMeA][Aze][NMeCha][NEtG][hPhe(3-Cl-4-CF3)]P[Ac5c][NMeGly(cPent)][NMeD]-{Azetidin(1-yl)}; lactam N-11) yielded a pIC50 of 8.89.
